According to the SangsterLogP compilation:

assay: not given

| Compound | logP |
| --- | --- |
| Cc1ccc(S(=O)(=O)Nc2ccc3nn(C4CCCC4)nc3c2)cc1 | 3.91 |
| O=C(Nc1ccc2nn(C3CCCC3)nc2c1)c1ccc(Cl)cc1 | 4.11 |
| CC(=O)N(C(C)=O)c1ccc2nn(C3CCCC3)nc2c1 | 2.73 |
| COc1cc(C(=O)Nc2ccc3nn(C4CCCC4)nc3c2)cc(OC)c1OC | 3.87 |
| O=C(Nc1ccc2nn(C3CCCC3)nc2c1)c1ccc(Cl)c(Cl)c1 | 5.32 |
| CC(C)(C)C(=O)c1cccc2nn(C3CCCC3)nc12 | 3.4 |
| O=[N+]([O-])c1ccc(S(=O)(=O)Nc2ccc3nn(C4CCCC4)nc3c2)cc1 | 3.82 |
| O=C(Nc1ccc2nn(C3CCCC3)nc2c1)C(Cl)Cl | 3.4 |

assay: method code SF, from DOI: 10.1016/0223-5234(90)90118-m

| Compound | logP |
| --- | --- |
| O=C(CCl)Nc1ccc2nn(C3CCCC3)nc2c1 | 2.78 |
| O=C(Nc1ccc2nn(C3CCCC3)nc2c1)c1ccc(C(F)(F)F)cc1 | 4.95 |
| CC(C)COC(=O)Nc1ccc2nn(C3CCCC3)nc2c1 | 4.28 |
| CCOC(=O)Nc1ccc2nn(C3CCCC3)nc2c1 | 3.43 |
| CS(=O)(=O)Nc1ccc2nn(C3CCCC3)nc2c1 | 2.44 |
| O=C(Nc1ccc2nn(C3CCCC3)nc2c1)C(Cl)(Cl)Cl | 4.12 |
| COc1ccc(C(=O)Nc2ccc3nn(C4CCCC4)nc3c2)cc1 | 4.03 |
| CC(=O)Nc1ccc2nn(C3CCCC3)nc2c1 | 2.45 |
| O=C(Nc1ccc2nn(C3CCCC3)nc2c1)c1ccc([N+](=O)[O-])cc1 | 3.75 |
| O=C(Nc1ccc2nn(C3CCCC3)nc2c1)c1ccccc1 | 3.85 |
